Reference: PubChem BioAssay (NCI)
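Compound exposure: 48 hours, 5 concentrations, 96-well plates. TGI denotes the concentration required for complete inhibition of growth.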 Residues, ends and D or L forms follow the SMILES beside them. *: point of attachment. Boc = CC(C)(C)OC(=O)*; OBn = c1ccc(CO*)cc1

These compounds were tested on SK-MEL-2 melanoma (assay: growth of human tumour cells (NCI), 48 h).

Structure (SMILES) | TGI [µM]
O=C1C(Cl)=C(N2C(=O)CCC2=O)C(=O)c2ccccc21 | > 100
CC(C)CC(NC(=O)OC(C)(C)C)C(=O)NC(CC(=O)OCc1ccccc1)C(N)=O (stereo not drawn) (Boc-Leu-Asp(OBn)-NH2; configuration not given here) | > 100

These compounds were tested on SK-MEL-28 melanoma (assay: growth of human tumour cells (NCI), 48 h).

Structure (SMILES) | TGI [µM]
Cc1cc(Nc2ccc(S(=O)(=O)O)cc2)c2ccccc2n1 | > 100
O=c1c(-c2ccccc2)c2n(c3ccccc13)CCN2 | > 100
C=CCN1CCN([C@H](c2ccc(C(=O)N(CC)CC)cc2)c2cccc(OC)c2)CC1 | > 25
O=C1C(Cl)=C(N2C(=O)CCC2=O)C(=O)c2ccccc21 | 48
CC(C)CC(NC(=O)OC(C)(C)C)C(=O)NC(CC(=O)OCc1ccccc1)C(N)=O (stereo not drawn) (Boc-Leu-Asp(OBn)-NH2; configuration not given here) | > 100

These compounds were tested on SK-MEL-5 melanoma (assay: growth of human tumour cells (NCI), 48 h).

Structure (SMILES) | TGI [µM]
Cc1cc(Nc2ccc(S(=O)(=O)O)cc2)c2ccccc2n1 | > 100
O=c1c(-c2ccccc2)c2n(c3ccccc13)CCN2 | > 100
C=CCN1CCN([C@H](c2ccc(C(=O)N(CC)CC)cc2)c2cccc(OC)c2)CC1 | > 25
O=C1C(Cl)=C(N2C(=O)CCC2=O)C(=O)c2ccccc21 | 36.7
CC(C)CC(NC(=O)OC(C)(C)C)C(=O)NC(CC(=O)OCc1ccccc1)C(N)=O (stereo not drawn) (Boc-Leu-Asp(OBn)-NH2; configuration not given here) | > 100

What follows are compounds tested on SK-OV-3 ovarian (assay: growth of human tumour cells (NCI), 48 h).

Structure (SMILES) | TGI [µM]
Cc1cc(Nc2ccc(S(=O)(=O)O)cc2)c2ccccc2n1 | > 100
C=CCN1CCN([C@H](c2ccc(C(=O)N(CC)CC)cc2)c2cccc(OC)c2)CC1 | > 25
O=C1C(Cl)=C(N2C(=O)CCC2=O)C(=O)c2ccccc21 | > 100
CC(C)CC(NC(=O)OC(C)(C)C)C(=O)NC(CC(=O)OCc1ccccc1)C(N)=O (stereo not drawn) (Boc-Leu-Asp(OBn)-NH2; configuration not given here) | > 100

What follows are compounds tested on SN12C renal (assay: growth of human tumour cells (NCI), 48 h).

Structure (SMILES) | TGI [µM]
Cc1cc(Nc2ccc(S(=O)(=O)O)cc2)c2ccccc2n1 | > 100
O=c1c(-c2ccccc2)c2n(c3ccccc13)CCN2 | > 100
C=CCN1CCN([C@H](c2ccc(C(=O)N(CC)CC)cc2)c2cccc(OC)c2)CC1 | > 25
O=C1C(Cl)=C(N2C(=O)CCC2=O)C(=O)c2ccccc21 | 33.6
CC(C)CC(NC(=O)OC(C)(C)C)C(=O)NC(CC(=O)OCc1ccccc1)C(N)=O (stereo not drawn) (Boc-Leu-Asp(OBn)-NH2; configuration not given here) | > 100

What follows are compounds tested on SNB-19 CNS (assay: growth of human tumour cells (NCI), 48 h).

Structure (SMILES) | TGI [µM]
Cc1cc(Nc2ccc(S(=O)(=O)O)cc2)c2ccccc2n1 | > 100
O=c1c(-c2ccccc2)c2n(c3ccccc13)CCN2 | 86.9
C=CCN1CCN([C@H](c2ccc(C(=O)N(CC)CC)cc2)c2cccc(OC)c2)CC1 | > 25
O=C1C(Cl)=C(N2C(=O)CCC2=O)C(=O)c2ccccc21 | > 100
CC(C)CC(NC(=O)OC(C)(C)C)C(=O)NC(CC(=O)OCc1ccccc1)C(N)=O (stereo not drawn) (Boc-Leu-Asp(OBn)-NH2; configuration not given here) | > 100

What follows are compounds tested on SNB-75 CNS (assay: growth of human tumour cells (NCI), 48 h).

Structure (SMILES) | TGI [µM]
Cc1cc(Nc2ccc(S(=O)(=O)O)cc2)c2ccccc2n1 | > 100
O=c1c(-c2ccccc2)c2n(c3ccccc13)CCN2 | > 100
O=C1C(Cl)=C(N2C(=O)CCC2=O)C(=O)c2ccccc21 | > 100
CC(C)CC(NC(=O)OC(C)(C)C)C(=O)NC(CC(=O)OCc1ccccc1)C(N)=O (stereo not drawn) (Boc-Leu-Asp(OBn)-NH2; configuration not given here) | > 100

These compounds were tested on SR leukemia (assay: growth of human tumour cells (NCI), 48 h).

Structure (SMILES) | TGI [µM]
Cc1cc(Nc2ccc(S(=O)(=O)O)cc2)c2ccccc2n1 | > 100
O=c1c(-c2ccccc2)c2n(c3ccccc13)CCN2 | > 100
C=CCN1CCN([C@H](c2ccc(C(=O)N(CC)CC)cc2)c2cccc(OC)c2)CC1 | > 25
O=C1C(Cl)=C(N2C(=O)CCC2=O)C(=O)c2ccccc21 | 82.5
CC(C)CC(NC(=O)OC(C)(C)C)C(=O)NC(CC(=O)OCc1ccccc1)C(N)=O (stereo not drawn) (Boc-Leu-Asp(OBn)-NH2; configuration not given here) | > 100

The compounds below were run on SW-620 colon (assay: growth of human tumour cells (NCI), 48 h).

Structure (SMILES) | TGI [µM]
Cc1cc(Nc2ccc(S(=O)(=O)O)cc2)c2ccccc2n1 | > 100
O=c1c(-c2ccccc2)c2n(c3ccccc13)CCN2 | > 100
C=CCN1CCN([C@H](c2ccc(C(=O)N(CC)CC)cc2)c2cccc(OC)c2)CC1 | > 25
O=C1C(Cl)=C(N2C(=O)CCC2=O)C(=O)c2ccccc21 | 56.9
CC(C)CC(NC(=O)OC(C)(C)C)C(=O)NC(CC(=O)OCc1ccccc1)C(N)=O (stereo not drawn) (Boc-Leu-Asp(OBn)-NH2; configuration not given here) | > 100

The compounds below were run on T-47D breast (assay: growth of human tumour cells (NCI), 48 h).

Structure (SMILES) | TGI [µM]
Cc1cc(Nc2ccc(S(=O)(=O)O)cc2)c2ccccc2n1 | > 100
O=c1c(-c2ccccc2)c2n(c3ccccc13)CCN2 | > 100
C=CCN1CCN([C@H](c2ccc(C(=O)N(CC)CC)cc2)c2cccc(OC)c2)CC1 | > 25
O=C1C(Cl)=C(N2C(=O)CCC2=O)C(=O)c2ccccc21 | > 100
CC(C)CC(NC(=O)OC(C)(C)C)C(=O)NC(CC(=O)OCc1ccccc1)C(N)=O (stereo not drawn) (Boc-Leu-Asp(OBn)-NH2; configuration not given here) | > 100

Each compound was assayed on TK-10 renal (assay: growth of human tumour cells (NCI), 48 h).

Structure (SMILES) | TGI [µM]
Cc1cc(Nc2ccc(S(=O)(=O)O)cc2)c2ccccc2n1 | > 100
O=c1c(-c2ccccc2)c2n(c3ccccc13)CCN2 | > 100
O=C1C(Cl)=C(N2C(=O)CCC2=O)C(=O)c2ccccc21 | > 100
CC(C)CC(NC(=O)OC(C)(C)C)C(=O)NC(CC(=O)OCc1ccccc1)C(N)=O (stereo not drawn) (Boc-Leu-Asp(OBn)-NH2; configuration not given here) | > 100

These compounds were tested on U251 CNS (assay: growth of human tumour cells (NCI), 48 h).

Structure (SMILES) | TGI [µM]
Cc1cc(Nc2ccc(S(=O)(=O)O)cc2)c2ccccc2n1 | > 100
O=c1c(-c2ccccc2)c2n(c3ccccc13)CCN2 | > 100
C=CCN1CCN([C@H](c2ccc(C(=O)N(CC)CC)cc2)c2cccc(OC)c2)CC1 | > 25
O=C1C(Cl)=C(N2C(=O)CCC2=O)C(=O)c2ccccc21 | 63.3
CC(C)CC(NC(=O)OC(C)(C)C)C(=O)NC(CC(=O)OCc1ccccc1)C(N)=O (stereo not drawn) (Boc-Leu-Asp(OBn)-NH2; configuration not given here) | > 100

Each compound was assayed on UACC-257 melanoma (assay: growth of human tumour cells (NCI), 48 h).

Structure (SMILES) | TGI [µM]
Cc1cc(Nc2ccc(S(=O)(=O)O)cc2)c2ccccc2n1 | > 100
O=c1c(-c2ccccc2)c2n(c3ccccc13)CCN2 | > 100
O=C1C(Cl)=C(N2C(=O)CCC2=O)C(=O)c2ccccc21 | 57.5
CC(C)CC(NC(=O)OC(C)(C)C)C(=O)NC(CC(=O)OCc1ccccc1)C(N)=O (stereo not drawn) (Boc-Leu-Asp(OBn)-NH2; configuration not given here) | > 100

These compounds were tested on UACC-62 melanoma (assay: growth of human tumour cells (NCI), 48 h).

Structure (SMILES) | TGI [µM]
Cc1cc(Nc2ccc(S(=O)(=O)O)cc2)c2ccccc2n1 | > 100
O=c1c(-c2ccccc2)c2n(c3ccccc13)CCN2 | > 100
C=CCN1CCN([C@H](c2ccc(C(=O)N(CC)CC)cc2)c2cccc(OC)c2)CC1 | > 25
O=C1C(Cl)=C(N2C(=O)CCC2=O)C(=O)c2ccccc21 | > 100
CC(C)CC(NC(=O)OC(C)(C)C)C(=O)NC(CC(=O)OCc1ccccc1)C(N)=O (stereo not drawn) (Boc-Leu-Asp(OBn)-NH2; configuration not given here) | > 100

These compounds were tested on UO-31 renal (assay: growth of human tumour cells (NCI), 48 h).

Structure (SMILES) | TGI [µM]
Cc1cc(Nc2ccc(S(=O)(=O)O)cc2)c2ccccc2n1 | > 100
O=c1c(-c2ccccc2)c2n(c3ccccc13)CCN2 | > 100
C=CCN1CCN([C@H](c2ccc(C(=O)N(CC)CC)cc2)c2cccc(OC)c2)CC1 | > 25
O=C1C(Cl)=C(N2C(=O)CCC2=O)C(=O)c2ccccc21 | 34.4
CC(C)CC(NC(=O)OC(C)(C)C)C(=O)NC(CC(=O)OCc1ccccc1)C(N)=O (stereo not drawn) (Boc-Leu-Asp(OBn)-NH2; configuration not given here) | > 100
